30 molecules from patent US20240150342A1, “ESTROGEN-RELATED RECEPTOR ALPHA MODULATORS” (LEAD PHARMA HOLDING B.V., priority 2019, published 2024) can be followed below.

The structures appear in SMILES notation.

This test concerns the target T1, ERRα ligand binding domain (ERRα-LBD) (Homo sapiens, UniProt P11474).
T1 construct: made in house; host or cells: E. coli
T1 sequence (P11474 193-421 limits assumed): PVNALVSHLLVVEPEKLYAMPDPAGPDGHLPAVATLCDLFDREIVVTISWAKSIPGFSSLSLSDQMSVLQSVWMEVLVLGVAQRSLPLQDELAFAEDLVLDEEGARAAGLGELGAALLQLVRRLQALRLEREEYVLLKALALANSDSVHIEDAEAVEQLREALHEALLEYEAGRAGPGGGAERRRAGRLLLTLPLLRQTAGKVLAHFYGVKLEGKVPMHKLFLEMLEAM
Put plainly: ERRα AlphaScreen Assay. In kind it is biochemical. The following applies: disruption of binding of ERRα-LBD protein to biotin-PGC1α-3 co-activator peptide; read-out: mean pIC50 (converted). An excerpt: This assay was based on the knowledge that nuclear receptors interact with cofactors in a ligand dependent matter. The sites of interaction have been mapped to LXXLL motifs that are present in the co-activator sequences. Short peptide sequences that contain the LXXLL motif mimic the behavior of full length co-activators.
The ERRα AlphaScreen Assay described here relies on the interaction of the co-activator peptide with purified bacterial- expressed ERRα ligand binding domain (ERRα-LBD); upon ligand binding, the ERRα protein can undergo a conformational change resulting in a loss of co-activator binding.
Compounds of the present invention were tested for their ability to disrupt binding of ERRα-LBD protein to co-activator peptide using AlphaScreen® Technology (Perkin Elmer). ERRα-LBD protein was expressed in E. coli as a 6×His Small Ubiquitin-like Modifier (SUMO) fusion. Bacterial expressed 6His-SUMO-ERRα-LBD protein was purified using affinity chromatography. All experiments were performed at room temperature in 384-well white non-binding plates (Greiner) using 50 mM Tris-HCl pH 7.5, 100 mM NaCl, 0.1% Pluronic F-127, 0.05% BSA and 5 mM TCEP as the buffer. Final DMSO concentration was 1% in the assay. Compounds were assayed in triplicate and: incubated with 0.81 nM ERRα-LBD protein and 10 μg/mL streptavidin donor beads and 10 μg/mL Ni-chelate acceptor beads for 1 hour at room temperature; followed by a 2-hour incubation with 15 nM biotin-PGC1α-3 peptide (QRRPCSELLKYLTTNDDPP) corresponding to amino acids 202 to 220.
The AlphaScreen signal was measured using an Envision Xcite plate reader (Perkin Elmer). Data was normalized, and curve fitting analysis was performed in GraphPad Prism 7 using a four-parameter dose-response fit.
A general note: Bead proximity is the source of the signal in Alpha formats.
In the case of `COc1cc(C2CC(=O)Nc3n[nH]cc32)ccc1Oc1cc(C(F)(F)F)cc(C(F)(F)F)c1` (single isomer, unassigned; (+)) [Example 79, (+)-4-{4-[3,5-bis(trifluoromethyl)phenoxy]-3-methoxyphenyl}-2H,4H,5H,6H,7H-pyrazolo[3,4-b]pyridin-6-one], the IC50 is 100 to 1000 nM.

For the molecule `COc1cc(C2CC(=O)Nc3n[nH]cc32)ccc1Oc1cc(C)cc(C)c1` (single isomer, unassigned; (+)) [Example 81, (+)-4-[4-(3,5-dimethylphenoxy)-3-methoxyphenyl]-2H,4H,5H,6H,7H-pyrazolo[3,4-b]pyridin-6-one], the IC50 is 100 to 1000 nM.

For `COc1cc(C2CC(=O)Nc3n[nH]cc32)ccc1Oc1cc(C)cc(C(F)(F)F)c1` (single isomer, unassigned; (+)) [Example 83, (+)-4-{3-methoxy-4-[3-methyl-5-(trifluoromethyl)phenoxy]phenyl}-2H,4H,5H,6H,7H-pyrazolo[3,4-b]pyridin-6-one], the IC50 is 100 to 1000 nM.

As to `COc1cc(C2CC(=O)Nc3n[nH]cc32)ccc1Oc1cc(C(F)F)cc(C(F)(F)F)c1` (single isomer, unassigned; (+)) [Example 85, (+)-4-{4-[3-(difluoromethyl)-5-(trifluoromethyl)phenoxy]-3-methoxyphenyl}-2H,4H,5H,6H,7H-pyrazolo[3,4-b]pyridin-6-one], the IC50 is 100 to 1000 nM.

Regarding `COc1cc(C2CC(=O)Nc3n[nH]cc32)ccc1Oc1cc(C)cc(C)c1` (single isomer, unassigned; (-)) [Example 82, (−)-4-[4-(3,5-dimethylphenoxy)-3-methoxyphenyl]-2H,4H,5H,6H,7H-pyrazolo[3,4-b]pyridin-6-one], the IC50 was 10 to 100 nM.

As for `COc1cc(C2CC(=O)Nc3n[nH]cc32)ccc1Oc1cccc(C)c1` (stereo not drawn) [Example 1, 4-[3-methoxy-4-(3-methylphenoxy)phenyl]-2H,4H,5H,6H, 7H-pyrazolo[3,4-b]pyridin-6-one], the IC50 is 100 to 1000 nM.

Consider `COc1cc(C2CC(=O)Nc3n[nH]cc32)ccc1Oc1ccc(C#N)cc1C(F)(F)F` (stereo not drawn) [Example 2, 4-(2-methoxy-4-{6-oxo-2H,4H,5H,6H,7H-pyrazolo[3,4-b]pyridin-4-yl}phenoxy)-3-(trifluoromethyl)benzonitrile], for which the IC50 is 100 to 1000 nM.

As to `COc1cc(C2CC(=O)Nc3n[nH]cc32)ccc1Oc1ccccc1C(F)(F)F` (stereo not drawn) [Example 4, 4-{3-methoxy-4-[2-(trifluoromethyl)phenoxy]phenyl}-2H,4H,5H,6H,7H-pyrazolo[3,4-b]pyridin-6-one], the IC50 is 100 to 1000 nM.

For `COc1cc(C2CC(=O)Nc3n[nH]cc32)ccc1Oc1ccc(C(F)(F)F)cc1` (stereo not drawn) [Example 5, 4-{3-methoxy-4-[4-(trifluoromethyl)phenoxy]phenyl}-2H,4H,5H,6H,7H-pyrazolo[3,4-b]pyridin-6-one], the IC50 was 100 to 1000 nM.

As to `COc1cc(C2CC(=O)Nc3n[nH]cc32)ccc1Oc1cccc(C(F)(F)F)c1` (stereo not drawn) [Example 6, 4-{3-methoxy-4-[3-(trifluoromethyl)phenoxy]phenyl}-2H,4H,5H,6H,7H-pyrazolo[3,4-b]pyridin-6-one], the IC50 is 100 to 1000 nM.

For `COc1cc(C2CC(=O)Nc3n[nH]cc32)ccc1Oc1ccccc1Br` (stereo not drawn) [Example 7, 4-[4-(2-bromophenoxy)-3-methoxyphenyl]-2H,4H,5H,6H,7H-pyrazolo[3,4-b]pyridin-6-one], the IC50 is 100 to 1000 nM.

On to `COc1cc(C2CC(=O)Nc3n[nH]cc32)ccc1Oc1ccccc1OC(F)(F)F` (stereo not drawn) [Example 12, 4-{3-methoxy-4-[2-(trifluoromethoxy)phenoxy]phenyl}-2H,4H,5H,6H,7H-pyrazolo[3,4-b]pyridin-6-one], for which the IC50 was 10 to 100 nM.

In the case of `COc1cc(C2CC(=O)Nc3n[nH]cc32)ccc1Oc1cccc(Br)c1` (stereo not drawn) [Example 14, 4-[4-(3-bromophenoxy)-3-methoxyphenyl]-2H,4H,5H,6H,7H-pyrazolo[3,4-b]pyridin-6-one], the IC50 is 100 to 1000 nM.

Consider `COc1cc(C2CC(=O)Nc3n[nH]cc32)ccc1Oc1cccc(C(C)(C)C)c1` (stereo not drawn) [Example 15, 4-[4-(3-tert-butylphenoxy)-3-methoxyphenyl]-2H,4H,5H,6H,7H-pyrazolo[3,4-b]pyridin-6-one], for which the IC50 is 10 to 100 nM.

As to `COc1cc(C2CC(=O)Nc3n[nH]cc32)ccc1Oc1cccc(OC(F)(F)F)c1` (stereo not drawn) [Example 17, 4-{3-methoxy-4-[3-(trifluoromethoxy)phenoxy]phenyl}-2H,4H,5H,6H,7H-pyrazolo[3,4-b]pyridin-6-one], the IC50 was 100 to 1000 nM.

Take `CCc1ccccc1Oc1ccc(C2CC(=O)Nc3n[nH]cc32)cc1OC` (stereo not drawn) [Example 20, 4-[4-(2-ethylphenoxy)-3-methoxyphenyl]-2H,4H,5H,6H,7H-pyrazolo[3,4-b]pyridin-6-one]: the IC50 is 100 to 1000 nM.

For `CCc1cccc(Oc2ccc(C3CC(=O)Nc4n[nH]cc43)cc2OC)c1` (stereo not drawn) [Example 21, 4-[4-(3-ethylphenoxy)-3-methoxyphenyl]-2H,4H,5H,6H,7H-pyrazolo[3,4-b]pyridin-6-one], the IC50 is 100 to 1000 nM.

In the case of `CCCc1ccccc1Oc1ccc(C2CC(=O)Nc3n[nH]cc32)cc1OC` (stereo not drawn) [Example 22, 4-[3-methoxy-4-(2-propylphenoxy)phenyl]-2H,4H,5H,6H,7H-pyrazolo[3,4-b]pyridin-6-one], the IC50 is 100 to 1000 nM.

As to `COc1cc(C2CC(=O)Nc3n[nH]cc32)ccc1Oc1ccccc1C(C)C` (stereo not drawn) [Example 23, 4-{3-methoxy-4-[2-(propan-2-yl)phenoxy]phenyl}-2H,4H,5H,6H,7H-pyrazolo[3,4-b]pyridin-6-one], the IC50 is 10 to 100 nM.

As for `COc1cc(C2CC(=O)Nc3n[nH]cc32)ccc1Oc1ccccc1-c1ccccc1` (stereo not drawn) [Example 24, 4-[3-methoxy-4-(2-phenylphenoxy)phenyl]-2H,4H,5H,6H,7H-pyrazolo[3,4-b]pyridin-6-one], the IC50 was 100 to 1000 nM.

With `COc1cc(C2CC(=O)Nc3n[nH]cc32)ccc1Oc1ccccc1C1CCCC1` (stereo not drawn) [Example 25, 4-[4-(2-cyclopentylphenoxy)-3-methoxyphenyl]-2H,4H,5H,6H,7H-pyrazolo[3,4-b]pyridin-6-one], the IC50 is 100 to 1000 nM.

`COc1cc(C2CC(=O)Nc3n[nH]cc32)ccc1Oc1ccccc1Cc1ccccc1` (stereo not drawn) [Example 26, 4-[4-(2-benzylphenoxy)-3-methoxyphenyl]-2H,4H,5H,6H,7H-pyrazolo[3,4-b]pyridin-6-one]: the IC50 was 100 to 1000 nM.

As to `COc1ccc(Oc2ccc(C3CC(=O)Nc4n[nH]cc43)cc2OC)c(C(C)(C)C)c1` (stereo not drawn) [Example 27, 4-[4-(2-tert-butyl-4-methoxyphenoxy)-3-methoxyphenyl]-2H,4H,5H,6H,7H-pyrazolo[3,4-b]pyridin-6-one], the IC50 is not above 10 nM.

For the molecule `COc1cc(C2CC(=O)Nc3n[nH]cc32)ccc1Oc1ccccc1C1CC1` (stereo not drawn) [Example 28, 4-[4-(2-cyclopropylphenoxy)-3-methoxyphenyl]-2H,4H,5H,6H,7H-pyrazolo[3,4-b]pyridin-6-one], the IC50 is 10 to 100 nM.

Turning to `COc1cc(C2CC(=O)Nc3n[nH]cc32)ccc1Oc1cccc(C(C)C)c1` (stereo not drawn) [Example 30, 4-{3-methoxy-4-[3-(propan-2-yl)phenoxy]phenyl}-2H,4H,5H,6H,7H-pyrazolo[3,4-b]pyridin-6-one], the IC50 was 10 to 100 nM.

On to `COc1cc(C2CC(=O)Nc3n[nH]cc32)ccc1Oc1cccc(C2CC2)c1` (stereo not drawn) [Example 31, 4-[4-(3-cyclopropylphenoxy)-3-methoxyphenyl]-2H,4H,5H,6H,7H-pyrazolo[3,4-b]pyridin-6-one], for which the IC50 is 10 to 100 nM.

As for `COC(=O)c1ccc(Oc2ccc(C3CC(=O)Nc4n[nH]cc43)cc2OC)c2ccccc12` (stereo not drawn) [Example 36, methyl 4-(2-methoxy-4-{6-oxo-2H,4H,5H,6H,7H-pyrazolo[3,4-b]pyridin-4-yl}phenoxy)naphthalene-1-carboxylate], the IC50 is not above 10 nM.

For the molecule `COc1cc(C2CC(=O)Nc3n[nH]cc32)ccc1Oc1cc(Br)cc(C(F)(F)F)c1` (stereo not drawn) [Example 42, 4-{4-[3-bromo-5-(trifluoromethyl)phenoxy]-3-methoxyphenyl}-2H,4H,5H,6H,7H-pyrazolo[3,4-b]pyridin-6-one], the IC50 was 10 to 100 nM.

Turning to `COc1cc(C2CC(=O)Nc3n[nH]cc32)ccc1Oc1cc(C(C)(C)C)cc(C(C)(C)C)c1` (stereo not drawn) [Example 44, 4-[4-(3,5-di-tert-butylphenoxy)-3-methoxyphenyl]-2H,4H,5H,6H,7H-pyrazolo[3,4-b]pyridin-6-one], the IC50 is 10 to 100 nM.

On to `COc1cc(C2CC(=O)Nc3n[nH]cc32)ccc1Oc1ccccc1C12CC(C1)C2` (stereo not drawn) [Example 45, 4-[4-(2-{bicyclo[1.1.1]pentan-1-yl}phenoxy)-3-methoxyphenyl]-2H,4H,5H,6H,7H-pyrazolo[3,4-b]pyridin-6-one], for which the IC50 was 10 to 100 nM.
